Laboratory results taken from patent US7468432B2, “Cobalamin conjugates useful as antitumor agents” (Mayo Foundation for Medical Education and Research, priority 1999, dated 2008).

How the values were obtained:
[1] = test system: cells; settings: in vitro neutron radiation of cells grown in the presence of compound; cited from earlier work
[2] = test system: African green monkey (Vero) cells; settings: concentration level of 1600 μM; cited from earlier work
[3] = test system: transcobalamin proteins; test: modified unsaturated Vitamin B12 binding capacity (UBBC) assay; parameters: species or system human; settings: 0.4 ml patient serum treated with 4 μL analog (10 μg per ml normal saline), 20 minutes at room temperature; blocking of Co-57 cyanocobalamin binding; 5 patients, n=10
Experimental: In vitro biological activity of the carborane cyanocobalamin analogs. To assess the in vitro binding of the carborane cyanocobalamin (Example 1, CCC) and DTPA-aminopropylcobalamin (Example 3, DAPC) analogs to the transcobalamin proteins, the unsaturated Vitamin B12 binding capacity (UBBC) assay (see D. A. Collins and H. P. C. Hogenkamp, J. Nuclear Medicine, 1997, 38, 717-723) was performed. Serum was obtained from 5 patients being evaluated for pernicious anemia at the Mayo Clinic. The patients' serum first underwent a routine clinical UBBC as previously described. To determine if the CCC and DAPC analogs would inhibit Co-57 cyanocobalamin from binding to the transcobalamin proteins, the excess serum from the 5 patients underwent modified UBBC.
Specifically, under dim light, 0.4 ml serum was treated with 4 μL (concentration 10 μg CCC per ml normal saline) of the 2 CCC analogs, carborane-d-cyano-cobalamin and carborane-b-cyanocobalamin, and DAPC. The analogs were incubated for 20 minutes at room temperature with the patient's serum. Both the clinical run and the analog treated samples were assayed for UBBC as usual.
The percent PB of the analogs to transcobalamin protein was calculated as follows (PB=100−CCCUBBC cpm/clinical UBBC cpm×100). […]

| Compound | biological effect equivalent to a concentration of 10B [1] [μg ^10B/g] | cytotoxicity [2] | average percent binding (PB) of the analogs to transcobalamin protein [3] [%] |
| --- | --- | --- | --- |
| O=c1[nH]c(=O)n([C@H]2C[C@H](O)[C@@H](CO)O2)cc1B(O)O [5-dihydroloxyboryl-2′-deoxyuridine] | ~6 | not cytotoxic |  |
| DTPA-aminopropylcarbalamin [DAPC] |  |  | 98.21 |
